Measured values published in ChEMBL document CHEMBL5647681, “Lack of the aryl hydrocarbon receptor leads to impaired activation of AKT/protein kinase B and enhanced sensitivity to apoptosis induced via the intrinsic pathway” (J Pharmacol Exp Ther, 2007).
The source made the active and inactive calls. No cut-off for these calls is given here.

Tests used:
[1] = Toxicity in AHR deficient mouse LA1 cells assessed as induction of apoptosis by measuring increase in caspase-3 activity at 0.1 to 1 uM incubated for 24 hrs in absence of UV-irradiation by caspase 3 Assay; details: la1, 24 h
[2] = system: LA1; experiment: Potentiation of UV-irradiation-induced apoptosis in AHR deficient mouse LA1 cells assessed as increase in caspase-3 activity at 0.1 to 1 uM incubated for 24 hrs before UV-irradiation for 24 hrs by caspase 3 Assay; details: dose 0.1-1 µM, time 48.0 hrs
[3] = target: Aryl hydrocarbon receptor (Mus musculus) (UniProt P30561); experiment: Antagonist activity at AHR in wild type mouse Hepa1c1c7 cells assessed as reduction in inhibition of EGFR phosphorylation at 10 uM incubated for 24 hrs before UV-irradiation and measured after 30 mins by Western blot analysis; details: hepa1c1c7, 24 h
[4] = target: Aryl hydrocarbon receptor (Mus musculus) (UniProt P30561); experiment: Antagonist activity at AHR in wild type mouse Hepa1c1c7 cells assessed as reduction in inhibition of Akt/PKB phosphorylation at 10 uM incubated for 24 hrs before UV-irradiation and measured after 30 to 60 mins by Western blot analysis; details: hepa1c1c7, 10 µM
[5] = target: Aryl hydrocarbon receptor (Mus musculus) (UniProt P30561); experiment: Antagonist activity at AHR in wild type mouse Hepa1c1c7 cells assessed as potentiation of UV-irradiation-induced apoptosis by measuring increase in caspase-3 activity at 0.1 to 1 uM incubated for 24 hrs before UV-irradiation for 24 hrs by caspase 3 Assay; details: hepa1c1c7, 48 h

Chain of Aryl hydrocarbon receptor (Mus musculus) (P30561 whole entry, looked up): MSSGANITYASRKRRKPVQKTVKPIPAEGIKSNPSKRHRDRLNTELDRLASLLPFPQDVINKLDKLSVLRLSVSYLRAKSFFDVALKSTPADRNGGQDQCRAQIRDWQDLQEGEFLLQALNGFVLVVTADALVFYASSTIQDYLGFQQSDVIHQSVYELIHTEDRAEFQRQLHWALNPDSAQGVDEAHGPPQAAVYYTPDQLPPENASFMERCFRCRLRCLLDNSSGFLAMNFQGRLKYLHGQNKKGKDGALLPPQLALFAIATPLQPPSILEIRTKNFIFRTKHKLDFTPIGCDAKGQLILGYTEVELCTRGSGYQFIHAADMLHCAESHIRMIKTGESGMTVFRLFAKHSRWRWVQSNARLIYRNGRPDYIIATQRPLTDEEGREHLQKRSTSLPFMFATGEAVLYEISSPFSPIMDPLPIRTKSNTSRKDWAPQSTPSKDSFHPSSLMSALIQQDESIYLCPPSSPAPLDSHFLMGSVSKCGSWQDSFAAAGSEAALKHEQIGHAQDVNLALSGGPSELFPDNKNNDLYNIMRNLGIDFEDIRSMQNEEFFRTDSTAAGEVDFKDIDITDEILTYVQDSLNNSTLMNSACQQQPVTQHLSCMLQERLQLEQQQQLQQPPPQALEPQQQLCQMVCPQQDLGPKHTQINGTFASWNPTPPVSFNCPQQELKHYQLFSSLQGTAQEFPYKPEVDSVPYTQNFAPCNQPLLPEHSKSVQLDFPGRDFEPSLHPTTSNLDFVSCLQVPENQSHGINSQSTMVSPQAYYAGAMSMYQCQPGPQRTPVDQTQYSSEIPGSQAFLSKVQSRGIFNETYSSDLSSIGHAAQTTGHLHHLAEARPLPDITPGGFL

Activity [3]: Active | Activity [4]: Active
SMILES: COc1cc(-c2cc(=O)c3ccccc3o2)ccc1[N+](=O)[O-]
Activity [1]: Non-Toxic | Activity [2]: Active | Activity [5]: Active
